In article PMC11721736, “Synthesis of Novel Benzothiazole–Profen Hybrid Amides as Potential NSAID Candidates” (Molecules, 2024):
Several values for one entry are separate records, joined by “and”; a condition that tells them apart may be missing. Equal values may be shown once.

Experiments:
[1] = Hydroxyl radical scavenging activity (HRSA); conditions: 1 h at 37 °C, absorbance at 510 nm
Procedure: Hydroxyl radical scavenging activities of different fractions of 2-ABT-profenes were determined according to the method described by Guo [47]. The scavenging of hydroxyl radicals was performed as follows: 0.3 mL sodium salicylate (20 mM), 1 mL FeSO4 (1.5 mM), 1 mL sample/standard of different concentrations (20–1000 µg/mL), and 0.7 mL H2O2 (6 mM) were mixed immediately. Then, the reaction tubes were put in a 37 °C water bath for 1 h, and the absorbance of the mixture was recorded at 510 nm against a blank. We used standards with proven high antioxidant activity such as ascorbic acid and quercetin. The hydroxyl radical scavenging ability was calculated as follows:(2) I,%(HRSA)=Ablank−Asample/Ablank×100 where Ablank is the absorbance without samples and Asample is the absorbance in the presence of the samples.

[2] = Hydrogen peroxide scavenging activity (HPSA); conditions: 10 min at 37 °C, absorbance at 230 nm
Procedure: The Manolov et al. approach was used to evaluate the capacity to scavenge hydrogen peroxide. A 43 mM solution of H2O2 was prepared in a potassium phosphate buffer solution (0.2 M, pH 7.4). The analysis of the samples was carried out as follows: in test tubes, 0.6 mL H2O2 (43 mM), 1 mL sample/standard of different concentrations (20–1000 µg/mL), and 2.4 mL potassium phosphate buffer solution were mixed. The mixture was stirred and incubated in the dark for 10 min at 37 °C. Absorbance was measured at 230 nm with a spectrophotometer (Camspec M508, Leeds, UK) against a blank solution containing phosphate buffer and H2O2 without the sample. Ascorbic acid and quercetin were used as standards. The percentage HPSA of the samples was evaluated by comparing them to a blank sample and was calculated using the following formula:(1) I,%(HPSA)=Ablank−(ATS−ACS)/Ablank×100 where Ablank is the absorbance of the blank sample, ACS is the absorbance of the control sample, and ATS is the absorbance of the test sample.

[3] = Lipophilicity as RM values by reversed-phase thin-layer chromatography; format: physicochemical; conditions: reversed-phase TLC, dimensionless
Source text: Lipophilicity can be evaluated through calculations or experimental methods. In our study, we measured the lipophilicity of the synthesized 2-ABT derivatives using a practical method: reversed-phase thin-layer chromatography, as described by Hadjipavlou-Litina. The lipophilicity increased in the following order based on the experimentally obtained RM values: 3a (1.629) < […] < 3e (1.736) < 3b (1.941) < 3c (2.02). Compound 3c is the most lipophilic experimentally, followed by 3b, while 3a is the least lipophilic.
The determination of lipophilicity of 2-ABT derivatives was estimated according to the method reported by Pontiki and Hadjipavlou-Litina.

human albumin = molecular target: T1, human albumin (Homo sapiens, UniProt P02768); assay: Inhibition of albumin denaturation (IAD), in vitro anti-inflammatory activity; format: biochemical; conditions: human albumin 1%, heated at 70 °C for 15 min, turbidity at 660 nm; read-out: IAD IC50 ± SD (converted)
T1 construct: purchased BB-NCIPD Ltd., Sofia, Bulgaria Human albumin 20%—BB, 200 g/L
Procedure: In vitro analysis of anti-inflammatory activity was assessed as the inhibition of albumin denaturation (IAD). The analysis was performed according to Manolov’s method, with minor modifications. The experiment was performed with human albumin. The solution of albumin (1%) was prepared in distilled water (pH 7.4). Test samples/standards were first dissolved in 1.2 mL of DMSO and then supplemented with 1% Tween 80 in PBS so that the final concentration of the stock solution was 1000 μg/mL. Then, a series of working solutions with different concentrations (20–500 μg/mL) in 1% Tween 80/PBS were prepared. The reaction mixture contained a 2 mL test sample/standard of different concentrations and 1 mL albumin (1%). The mixture was incubated at 37 °C for 15 min and then heated at 70 °C for 15 min in a water bath. After cooling, the turbidity was measured at 660 nm with a spectrophotometer (Camspec M508, Leeds, UK). Ibuprofen was used as a standard. The experiment was performed three times. The percentage inhibition of albumin denaturation (IAD) was calculated against the control. The control sample consisted of the same concentration of albumin dissolved in distilled water. (3) %IAD=Ablank−Asample/Ablank×100

T1 sequence (P02768 25-609): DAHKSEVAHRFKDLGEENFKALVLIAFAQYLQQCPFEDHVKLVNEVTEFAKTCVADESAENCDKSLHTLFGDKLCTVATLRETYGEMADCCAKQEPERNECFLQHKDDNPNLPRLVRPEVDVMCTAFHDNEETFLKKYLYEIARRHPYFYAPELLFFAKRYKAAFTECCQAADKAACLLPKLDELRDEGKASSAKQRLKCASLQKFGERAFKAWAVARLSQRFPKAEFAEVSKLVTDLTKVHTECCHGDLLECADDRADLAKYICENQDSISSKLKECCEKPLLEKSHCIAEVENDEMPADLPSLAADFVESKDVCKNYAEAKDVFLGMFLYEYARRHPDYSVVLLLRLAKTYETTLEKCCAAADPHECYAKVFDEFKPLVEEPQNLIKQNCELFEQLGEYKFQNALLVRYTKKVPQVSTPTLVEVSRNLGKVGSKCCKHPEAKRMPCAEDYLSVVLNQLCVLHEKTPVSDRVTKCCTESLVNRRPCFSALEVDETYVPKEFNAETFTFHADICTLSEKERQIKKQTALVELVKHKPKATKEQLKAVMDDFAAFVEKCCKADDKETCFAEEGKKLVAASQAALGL

SMILES	HRSA IC50 ± SD [1] [µg/mL]	HPSA IC50 ± SD [2] [µg/mL]	RM ± SD [3]	IC50 (human albumin) [µM]
O=C1O[C@H]([C@@H](O)CO)C(O)=C1O [AA, ascorbic acid, reference compound]	129.84 ± 4.52	24.84 ± 0.35		
CC(C(=O)Nc1nc2ccccc2s1)c1ccc2c(c1)[nH]c1ccc(Cl)cc12 (stereo not shown) [Compound 3d, N-(benzo[d]thiazol-2-yl)-2-(6-chloro-9H-carbazol-2-yl)propanamide]	551.44 ± 28.48	67.22 ± 0.45	1.755 ± 0.014 and 1.755	160
CC(C)Cc1ccc(C(C)C(=O)O)cc1 (stereo not shown) [Ibu, ibuprofen, reference compound]			1.110 ± 0.010	
COc1ccc2cc(C(C)C(=O)Nc3nc4ccccc4s3)ccc2c1 (stereo not shown) [Compound 3c, N-(benzo[d]thiazol-2-yl)-2-(6-methoxynaphthalen-2-yl)propanamide]	317.91 ± 11.61	67.71	2.020 ± 0.046 and 2.02	178
CC(C)Cc1ccc(C(C)C(=O)Nc2nc3ccccc3s2)cc1 (stereo not shown) [Compound 3a, N-(benzo[d]thiazol-2-yl)-2-(4-isobutylphenyl)propanamide]	375.06 ± 14.62	65.51 ± 0.30	1.629 ± 0.009 and 1.629	473
O=c1c(O)c(-c2ccc(O)c(O)c2)oc2cc(O)cc(O)c12 [Qrc, quercetin, reference compound]	149.18 ± 9.27	69.25 ± 1.82		
CC(C(=O)Nc1nc2ccccc2s1)c1cccc(C(=O)c2ccccc2)c1 (stereo not shown) [Compound 3b, N-(benzo[d]thiazol-2-yl)-2-(3-benzoylphenyl)propanamide]	285.13 ± 27.44	60.24	1.941 ± 0.010 and 1.941	141
CC(C(=O)Nc1nc2ccccc2s1)c1ccc(-c2ccccc2)c(F)c1 (stereo not shown) [Compound 3e, N-(benzo[d]thiazol-2-yl)-2-(2-fluoro-[1,1′-biphenyl]-4-yl)propanamide]	429.59 ± 21.49	63.05 ± 0.28	1.736 ± 0.015 and 1.736	157
